Measured values: patent publication US6337333B1, “Method of treating autoimmune disease with fludarabine-5′-monophosphate” (priority 1992, dated 2002)

What was measured:
IgG production = assay: Cumulative IgG production in SAC + rIL-2 cultures, EIA; assay type: cell-based, human; conditions: for accumulation of IgG: 5 and 10 day SAC rIL-2 cultures, preliminary studies; for effect on IgG production: FIG. 7B
Description: In FIG. 7, peripheral blood mononuclear cells (PBMC) enriched for B lymphocytes (BC92; 35% CD19, 33% CD20, 35% CD3) were continuously cultured for 5 days in either medium alone, Staphylococcus aureus Cowan I (SAC) plus interleukin 2 (IL-2) (50 U/ml), or SAC plus IL-2 in the presence of various concentrations of FLP or 2-chlorodeoxyadenosine (2CDA). After 5 days of culture, the supernatants were harvested and serial dilutions of supernatant assayed for huIgM and huIgG by EIA. The presence of IgM rheumatoid factor (IgM-RF) was determined by EIA using the Vectastain Biotin-Streptavidin amplification system. Results are reported as O.D. 405 nm units. Nonspecific binding of neat supernatant to uncoated wells was <0.05% of that seen with the respective coated wells. The results shown are from 1 representative experiment of 4 separate experiments conducted with 4 different sources of packed leukocytes.
In FIG. 8, peripheral blood mononuclear cells (PBMC) enriched for B lymphocytes (BC92, 35% CD19, 33% CD20, 35% CD3) were continuously cultured for 10 days in either medium alone, Staphylococcus aureus Cowan I (SAC) plus interleukin 2 (IL-2) (50 U/ml), or SAC plus IL-2 in the presence of various concentrations of FLP or 2CDA. At the end of the culture period, the supernatants were harvested and serial dilutions assayed for huIgM, huIgG, and IgM-RF by EIA. The cells were phenotyped by flowcytometry. Results are reported as O.D. 405 nm units. Nonspecific binding of neat supernatants to uncoated wells was <0.5% of that seen with parallel coated wells. The results shown are from 1 experiment representative of 3 separate experiments conducted with 3 different sources of packed leukocytes.
In FIG. 9, peripheral blood mononuclear cells (PBMC) (BC93; 22% CD19, 20% CD20, 78% CD3) were continuously cultured for 5 days in either medium alone, Staphylococcus aureus Cowan I (SAC) plus interleukin 2 (IL-2) (50 U/ml) or 20% T cell conditioned medium (Tcm) in the presence of various concentrations of FLP. At the end of the 5 day culture period, the supernatants were harvested and serial dilutions assayed for huIgM, huIgG, and IgM-RF by EIA. The results are reported as O.D. 405 nm units. Nonspecific binding of neat supernatants to uncoated wells was <0.05% of parallel coated wells. The results shown are from one representative experiment.
Immulon-2 (Dynatek Laboratories, #011-010-3450, Chantilly, Va.) flat-bottom 96 well microtiter plates were coated with 100 μl/well of a 2 μg/ml solution of goat F(ab′)2 anti-HuIgM (μ chain, CALTAG #H15100, So. San Francisco, Calif.) or goat F(ab′)2 anti-HuIgG (Fc sp., CALTAG #H10100) in 0.1 M sodium carbonate buffer, pH 9.6 overnight at 4° C. Uncoated wells were incubated with the carbonate buffer alone. The plates were rinsed and then incubated with 100 μl/well of 0.1% BSA/PBS for 1 hr at RT. The plates were rinsed twice with PBS and then incubated for 2 hrs at RT with the respective serial dilutions of culture supernatant and human IgM or IgG standards (Sigma, St.
Louis, Mo.). All dilutions were made in complete S-10 medium (see above). At the end of the incubation period, the plates were rinsed 3 times with PBS/0.05% Tween-20. 100 μl of a 1/500 dilution of goat F(ab′)2 anti-IgM (m) or anti-IgG (H+L) conjugated with alkaline phosphatase (Fisher Biotech, #OB1210-ALPH and #OB1220-ALPH, Pittsburg, Pa.) was added to each well and incubated for 1 hr at RT. The plates were rinsed 3-5 times with PBS/0.05% Tween-20 and 100 μl/well of p-nitrophenyl phosphate substrate (Bio-Rad, Richmond, Calif.) was added and incubated for 30 min. The wells were read at 405 nm with an InterMed NJ-2000 immunoreader. The concentration of sample IgM or IgG was calculated off of a standard curve using the XFROMY linear regression analysis on RS-1 (VAX-VMS). Nonspecific binding was determined from low-dilution samples incubated in parallel in uncoated wells (<0.005% O.D. 405 nm of coated wells). […]

T and B lymphocytes = assay: Mitogen response of PBMC enriched for T or B lymphocytes continuously cultured with drug; assay type: cell-based, human; conditions: cultures continuously exposed to drug
Method: In FIG. 2, peripheral blood mononuclear cells enriched for either T (top) or B (bottom) lymphocytes were continuously cultured with the appropriate concentrations of drug for 3 or 6 days, respectively. The mitogen PHA-P was used at 5 μg/ml and the mitogen PWM was used at 1 μg/ml. The wells were pulsed and harvested as described above.
The adenosine analog 2-chlorodeoxyadenosine (2CDA) has also been reported to have significant cytotoxic and immunosuppressive effects on normal lymphocytes (10,13).

| Compound | accumulation of IgG (IgG production) | effect on IgG production (IgG production; one microgram per ml, 5 days) | effect on IgG accumulation (IgG production; one microgram per ml, 10 days) | level of drug that suppresses the mitogen response (T and B lymphocytes) [µg/mL] | effect on IgG accumulation (IgG production; 0.1 μg/ml, 10 days, FIG. 8B) | reduction of IgG accumulation (IgG production; 1 μg, 10 days, FIG. 8B) [%] | reduction of IgG accumulation (IgG production; 5 μg, 10 days, FIG. 8B) [%] | reduction of IgG accumulation (IgG production; 0.1 and 0.5 μg/ml, PBMC, 5 days, cultures supplemented with T cell conditioned medium, FIG. 9B) | effect on IgG production (IgG production; one hundred nanograms per ml, 5 days) |
| --- | --- | --- | --- | --- | --- | --- | --- | --- | --- |
| Nc1nc(Cl)nc2c1ncn2[C@H]1C[C@H](O)[C@@H](CO)O1 [2CDA, 2-chlorodeoxyadenosine] | dose-related decrease | block | block the accumulation | 0.5 | – | – | – | – | – |
| Nc1nc(F)nc2c1ncn2[C@@H]1O[C@H](COP(=O)(O)O)[C@@H](O)[C@@H]1O [FLP, fludarabine-5′-monophosphate] | dose-related decrease | – | – | 0.5 | minimal effect | 80 | 98 | not seen | minimal effect |
